Here are results for 3 substances from patent publication US20130236966A1, “NK-1 Receptor Mediated Delivery of Agents to Cells” (THE UNIVERSITY OF CHICAGO, priority 2007, published 2013).

Ends that are not written are not given here. Alexa555 = Alexa Fluor 555 thiol-reactive fluorophore

Experiment [1] has as its system HeLa cells transfected with the NK-1 receptor. The experiment can be described thus: delivery of a polynucleotide encoding GFP. It is filed as cell-based, human. As to conditions: 200 pM, FIG. 7. The method, then: (§1) NK-1 receptor transfection: A plasmid coding for the human NK-1 receptor in the mammalian expression vector pCDNA3(+) (provided by Dr. Robert Lefkowitz, Duke University) was transfected into HeLa cells using Lipofectamine 2000 according to manufacturer protocol, with 1 ng of the plasmid for each well containing 10^4 HeLa cells seeded on an 18 mm cover-slip in a 12-well plate.
To determine if other types of agents could also be delivered to cells expressing NK-1 receptors in accordance with the invention, HeLa cells transfected with the NK-1 receptor as described above, were incubated with an SP-polynucleotide conjugate. The polynucleotide encoded GFP operably linked to a promoter functional in the cells. The polynucleotide was also fluorescently tagged with Alexa-647 such that delivery of the polynucleotide into the cell could be monitored as well as expression of GFP.

Experiment [2] deals with HeLa cells transfected with a plasmid coding for the NK-1 receptor. The experiment is described as follows: confocal microscopy of NK-1 receptor-mediated internalization in transfected HeLa cells. It counts as cell-based, human. The method, then: as §1
(§2) Confocal Microscopy: For each sample, 10^4 U87 cells were seeded on an 18 mm cover-slip in MEM with 10% FBS overnight in a 12-well plate, then starved in MEM with 0.1% BSA for 3 hrs. The reagent (SP-sAB conjugate, SP-Fluorophore or sAB only) was filter-sterilized, diluted to the desired final concentration in MEM 0.1% BSA and added directly to the live cells in each well for 2 hrs. Untreated cells served as a negative control. Following incubation with the reagent, the cells were washed with PBS and fixed in 4% p-formaldehyde. The cells were permeablized in TBS-Tween and blocked with 10% Normal Goat Serum for 1 hr. Actin filaments were stained with FITC-phalloidin (1:250 dilution), or TRITC-phalloidin (1:3000 dilution) for 1 hr at room temperature. Nuclei were stained with DAPI (10 μg/mL) or Hoechst reagent (Invitrogen, 1:2000) for 5 minutes at room temperature. Samples were mounted using ProLong Gold reagent (Invitrogen). Confocal microscopy images were collected using a Leica SP2 with Alexa 488, Alexa 555 or Cy3 and Alexa 574 or Cy5 excited with the 488 nm laser, the 543 nm laser and the 633 laser, respectively. Multicolored images were overlaid using the imageJ software.
The ability to specifically deliver functional biomolecular agents to living cells can be a powerful research tool for studying molecular processes. Introduction of the NK-1 receptor is sufficient for the uptake of fluorescently-labeled SP. […] HeLa cells transfected with a plasmid coding for the NK-1 receptor were incubated for 2 hours with 20 nM fluorescently-labeled SP. The cells were then stained with phalloidin for visualization of actin structure.

Experiment [3] relates to U87 glioblastoma cells. The experiment is described as follows: confocal microscopy of internalization in U87 glioblastoma cells. It is filed as cell-based, human. As to conditions: FIG. 3b. On the procedure: (§3) Cell lines: U87 human glioblastoma-astrocytoma epithelial-like cells (provided by Prof. Maciej S. Lesniak, University of Chicago Medical Center) were cultured in MEM with penicillin/streptomycin and 10% FBS. Normal human astrocytes (NHA) were purchased from Lonza and cultured in astrocyte growth media (Lonza) supplemented with rhEGF; Insulin, Ascorbic Acid, GA-1000, L-Glutamine and 5% FBS. HeLa cells (provided by Dr. Ronald Rock, University of Chicago) were grown in DMEM pencillin/streptomycin and with 10% FBS.
as §2, with “Samples were mounted using ProLong Gold reagent (Invitrogen). Confocal microscopy images were collected using a Leica SP2 with Alexa 488, Alexa 555 or Cy3 and Alexa 574 or Cy5 excited with the 488 nm laser, the 543 nm laser and the 633 laser, respectively. Multicolored images were overlaid using the imageJ software.” left out

The test system of experiment [4] is normal human astrocytes (NHA). The experiment can be described thus: confocal microscopy of internalization in normal human astrocytes. The note with it: FIG. 3c. It is filed as cell-based. On the procedure: as §3
as §2, with “Samples were mounted using ProLong Gold reagent (Invitrogen). Confocal microscopy images were collected using a Leica SP2 with Alexa 488, Alexa 555 or Cy3 and Alexa 574 or Cy5 excited with the 488 nm laser, the 543 nm laser and the 633 laser, respectively. Multicolored images were overlaid using the imageJ software.” left out

The subject of experiment [5] is U87 glioblastoma cells. The experiment is described as follows: MTS proliferation / cell viability assay. It is filed as cell-based, human. The note with it: 10 nM or 20 nM, 48 hrs, FIG. 5a. On the procedure:
MTS proliferation assay: U87 cells were seeded in 96-well plates at density 5000 cells/well in 0.1 mL of growth media. Cells were attached overnight and starved for 3 hours. Cells were stimulated with 20 nM sAB27-SP conjugate for 3, 5, 9, 24 and 48 hours, and SP or sAB27 alone for 48 hours in starving media. 20 μL of the MTS-based CellTiter 96 Aqueous One Solution reagent was added to each well. The plate was incubated in a humidified, 5% CO2 atmosphere until color was developed and the absorbance was recorded at 490 nm.
Due to the actin-bundling activity of sAB-27, its effect on the viability of U87 glioblastoma cells following SP-mediated delivery was investigated. Live U87 cells were treated with either 10 nM or 20 nM of the SP-sAB-27 conjugate and a cell viability assay was carried out at different time points up to 48 hrs after treatment. The viability of cells incubated with the conjugates was compared with that of cells treated with SP alone or sAB-27 alone, as well as untreated cells.

With “SP-polynucleotide conjugate: SP conjugated to an Alexa-647 tagged polynucleotide encoding GFP operably linked to a promoter (RPKPQQFFGLM; ends and bridges not checked; also: conjugated to Alexa-647 tagged GFP-encoding polynucleotide, site not given here; UniProt P20366 58-68, looked up)”, in experiment [1] (2 hours), the “internalization of the Alexa-647 tagged polynucleotide” value is recorded as “internalized after 2 hours” and the “localization of the internalized polynucleotide” value is “at least a portion co-localized with the nucleus of the cell”. Moreover, in experiment [1] (24 hours, confocal microscopy), the “expression of GFP” value is on record as “expression of GFP after 24 hours”.
“SP-Alexa555: variant of SP with a cysteine at position 3 carrying a thiol-reactive fluorophore; positive control for NK-1 receptor-mediated internalization (RPC(Alexa555)PQQFFGLM; ends and bridges not checked)”: in experiment [2] (20 nM, 2 hours, confocal microscopy), the “internalization by transfected cells” value was “rapid internalization”. In experiment [2] (100 nM, FITC-phalloidin, FIG. 2a,b), the “effect on actin structure” value was “actin structure is unaffected”. Further, the “internalization by U87 cells” value is “internalization” with U87 glioblastoma cells [3] (100 nM (figure legend)) and “readily internalize” in the experiment on U87 glioblastoma cells [3] (200 nM, 2 hr). The “internalization by NHA” value in experiment [4] (100 nM (figure legend)) was “no internalization was observed”. Moreover, in experiment [4] (200 nM, 2 hr), the “internalization by normal astrocytes” value is listed as “undetectable”.
On to “SP: 11-amino acid peptide that is rapidly internalized upon binding to the NK-1 receptor; used alone as control (RPKPQQFFGLM; ends and bridges not checked; UniProt P20366 58-68, looked up)”, for which, in experiment [2] (20 nM, phalloidin staining, FIG. 2), the “localization with actin / effect on actin structure” value is “no specific localization with actin and no apparent effect on the structure of the actin filaments”. The cell viability result in the experiment with U87 glioblastoma cells [5] was “no effect on viability”.
